Reference: patent US9247740B2, “Isoxazoline derivatives as insecticidal compounds” (Syngenta Participations AG, priority 2011, dated 2016)

Tests used:
Type in all cases: in vivo
[1] = system: Tetranychus urticae (Two-Spotted Spider Mite); test: Tetranychus urticae leaf disc spray test; settings: foliar, 192 h, 200 ppm spray on bean leaf discs, mixed ages, egg, larval and adult mortality 8 days later
Excerpt: (§1) This Example illustrates the insecticidal and acaricidal properties of compounds of formula (I).

[2] = system: Spodoptera littoralis (Egyptian Cotton Leafworm); test: Spodoptera littoralis leaf disc spray test; settings: foliar, 72 h, 200 ppm spray on cotton leaf discs, mortality, feeding behavior, growth regulation 3 days after treatment
Procedure: This Example illustrates the insecticidal and acaricidal properties of compounds of formula (I). Tests were performed as follows:

[3] = system: Heliothis virescens (Tobacco Budworm); test: Heliothis virescens egg test on artificial diet; settings: 96 h, 200 ppm (concentration in well 18 ppm), eggs 0-24 h old on artificial diet, egg mortality, larval mortality, growth regulation after 4 days
Excerpt: as §1

[4] = system: Diabrotica balteata (Corn Root Worm); test: Diabrotica balteata larval test on artificial diet; settings: 120 h, 200 ppm (concentration in well 18 ppm), L2 larvae, larval mortality and growth regulation after 5 days
Excerpt: as §1

[5] = system: Plutella xylostella (Diamond Back Moth); test: Plutella xylostella larval test on artificial diet; settings: 144 h, 200 ppm (concentration in well 18 ppm), L2 larvae, larval mortality and growth regulation after 6 days
Excerpt: as §1

[6] = system: Thrips tabaci (Onion Thrips); test: Thrips tabaci leaf disc spray test; settings: foliar, 168 h, 200 ppm spray on sunflower leaf discs, mixed ages, mortality after 7 days
Excerpt: as §1

Measured: pest or weed control at 200 ppm

O=C(N[C@H]1C[S@@+]([O-])C1)c1ccc(C2=NO[C@@](c3cc(Cl)cc(Cl)c3)(C(F)(F)F)C2)cc1Cl [Compound C15, 2-chloro-4-[(5S)-5-(3,5-dichlorophenyl)-5-(trifluoromethyl)-4H-isoxazol-3-yl]-N-(1-oxidothietan-1-ium-3-yl)benzamide]
≥ 80%: all assays above

Cc1cc(C2=NO[C@@](c3cc(Cl)cc(Cl)c3)(C(F)(F)F)C2)cnc1C(=O)N[C@H]1C[S@@+]([O-])C1 [Compound C16, 5-[(5S)-5-(3,5-dichlorophenyl)-5-(trifluoromethyl)-4H-isoxazol-3-yl]-3-methyl-N-(1-oxidothietan-1-ium-3-yl)pyridine-2-carboxamide]
≥ 80%: all assays above

Cc1cc(C2=NO[C@@](c3cc(Cl)c(Cl)c(Cl)c3)(C(F)(F)F)C2)ccc1C(=O)N[C@H]1C[S@@+]([O-])C1 [Compound C17, 2-methyl-N-(1-oxothietan-3-yl)-4-[(5S)-5-(3,4,5-trichlorophenyl)-5-(trifluoromethyl)-4H-isoxazol-3-yl]benzamide]
≥ 80%: all assays above

Cc1cc(C2=NO[C@@](c3cc(Cl)c(F)c(Cl)c3)(C(F)(F)F)C2)ccc1C(=O)NC1CS(=O)(=O)C1 [Compound C18, 4-[(5S)-5-(3,5-dichloro-4-fluoro-phenyl)-5-(trifluoromethyl)-4H-isoxazol-3-yl]-N-(1,1-dioxothietan-3-yl)-2-methyl-benzamide]
≥ 80%: all assays above

Cc1cc(C2=NO[C@@](c3cc(Cl)cc(Cl)c3)(C(F)(F)F)C2)ccc1C(=O)NCC1CS(=O)(=O)C1 [Compound C20, 4-[(5S)-5-(3,5-dichlorophenyl)-5-(trifluoromethyl)-4H-isoxazol-3-yl]-N-[(1,1-dioxothietan-3-yl)methyl]-2-methyl-benzamide]
≥ 80%: all assays above
